From PMC8579695, “The Stringent Response Inhibits 70S Ribosome Formation in Staphylococcus aureus by Impeding GTPase-Ribosome Interactions” (mBio, 2021)

Test system: RA-GTPases RsgA, RbgA, Era, and HflX
Experiment: DRaCALA binding and competition assays across the four RA-GTPases
Parameters: species or system Staphylococcus aureus
Details: 100 μM cold competitor
From the text: FIG 1 Nucleotide binding characteristics of RA-GTPases. (A) Schematic representation of the domain structure of Era, RsgA, RbgA, and HflX from S. aureus. The conserved GTPase domain (G domain) is colored in green, and accessory domains are shown. (B) Determination of binding affinities and Kd values for ^32P-labeled GTP, GDP, ppGpp, and pppGpp with purified recombinant 6×His-tagged RbgA using DRaCALA, as previously described ([36]). Each point is the mean average of at least three technical replicates, and error bars indicate standard deviations. (C) Binding assay (DRaCALA) of recombinant RbgA binding to ^32P-labeled GTP, ppGpp, and pppGpp in the presence of an excess of cold competitor (GTP, GDP, ppGpp, pppGpp, or ATP). All experiments were carried out in triplicate, with error bars representing standard deviations. […]
Supplementary file : FIG S2 Examination of the binding of GDP, ppGpp, GTP, and pppGpp to RA-GTPases by DRaCALA. […] Kd values were determined from the binding curves as previously described ([36]). […]
Structural data places (p)ppGpp within the GTP-binding site of the RA-GTPase RbgA ([6]), indicating a competitive mode of inhibition. […] Based on our measured affinities (Table 1), we speculate that both GDP and ppGpp will outcompete other nucleotides for occupancy of the binding site. […]

In the case of Nc1nc2c(ncn2[C@@H]2O[C@H](COP(=O)(O)OP(=O)(O)O)[C@@H](OP(=O)(O)OP(=O)(O)O)[C@H]2O)c(=O)[nH]1 [ppGpp], the “competition of cold unlabeled nucleotide with 32P-labeled GTP, ppGpp, pppGpp” value is reported as “competing more effectively”.
